The record followed here is patent publication US8586552B2, “4,6-substituted 2,5-dideoxystreptamine aminoglycoside antibiotics” (SelectX Pharmaceuticals, Inc., priority 2012, dated 2013).

Format in all cases: cell-based
Test [1] relates to more than fifty resistant contemporary clinical isolates of Pseudomonas aeruginosa. As to the kind of experiment: MIC90 against panel of resistant clinical isolates of Pseudomonas aeruginosa. The text has this: To assess this, a panel of more than fifty resistant contemporary clinical isolates of Pseudomonas aeruginosa were obtained from multiple sources including JMI Laboratories (North Liberty, Iowa), Pfizer (Groton, Conn.), Micromyx (Kalamazoo, Mich.), Dr. J. Chow (Wayne State University). Strains were characterized for resistance to a wide variety of classes of antibiotics including aminoglycosides, β-lactams and fluoroquinolones. […] This reflects the difficulty in treating clinical Pseudomonas aeruginosa infections. […] Using this stringent panel, we tested a subset of compounds of the invention (Table 4).

The subject of test [2] is Pseudomonas aeruginosa PR2 (clinical isolate with intermediate aminoglycoside resistance). In words: MIC against Pseudomonas aeruginosa clinical isolate PR2. The note with it: Pseudomonas aeruginosa resistant strain PR2. The text has this:
(§1) Pseudomonas aeruginosa is a prominent nosocomial pathogen. In addition to intrinsic antibiotic resistance to several antibiotics, Pseudomonas has acquired multiple additional mechanisms of resistance. As a result, therapeutic options for the treatment of infections caused by Pseudomonas aeruginosa are limited. We acquired clinical isolates of Pseudomonas aeruginosa (Micromyx LLC, Kalamazoo, Mich.), and used this panel to test compounds for Pseudomonicidal activity. […] For each strain and antibiotic, the mechanism(s) of resistance was inferred from the resistance profile. The presence of specific AGMEs was confirmed by colony PCR.

Test [3] relates to Klebsiella pneumoniae KR3 (clinical isolate possessing high-level aminoglycoside resistance). In words: MIC against Klebsiella pneumoniae clinical isolate KR3. The conditions noted are these: Klebsiella pneumonia KR3; in µg/mL. The source says: (§2) Klebsiella pneumoniae (Kpn) and Escherichia coli (Eco) are gram-negative (like Pae), enteric pathogens with increasing clinical relevance. Many clinical isolates of Kpn and Eco harbor extended-spectrum beta-lactamases and are no longer sensitive to most beta-lactam antibiotics. We acquired clinical isolates of Klebsiella pneumoniae and Escherichia coli (Micromyx LLC, Kalamazoo, Mich.) and used this panel to test compounds for anti-enteric activity.

Test [4] deals with panel of E. coli strains. As to the kind of experiment: MIC90 against a panel of E. coli strains. The note with it: in µg/mL.
Test [5] relates to Pseudomonas aeruginosa PR1 (clinical isolate with intermediate aminoglycoside resistance). As to the kind of experiment: MIC against Pseudomonas aeruginosa clinical isolate PR1. The conditions noted are these: Pseudomonas aeruginosa resistant strain PR1.
Text: as §1

The subject of test [6] is Acinetobacter baumannii AB2. In words: MIC against Acinetobacter baumannii clinical isolate AB2. The source says: (§3) Acinetobacter baumannii is another clinically important and very challenging gram negative pathogen. Members of the Acinetobacter genus, including baumannii, have a remarkable ability to upregulate and acquire resistance determinants. Coupled with its ability to survive for prolonged periods in a hospital environment, A. baumannii is an emerging threat for healthcare institutions globally. We acquired clinical isolates of Acinetobacter baumannii and used this panel to test compounds for anti-Acinetobacter activity. We first tested reference AGs against our panel of Aba strains.

Test [7] has as its system fifty resistant contemporary clinical isolates of Klebsiella pneumoniae. As to the kind of experiment: MIC90 against panel of resistant clinical isolates of Klebsiella pneumoniae. The note with it: stringent panel of resistant clinical isolates, Table 5. The text has this:
Using this stringent Klebsiella pneumoniae panel, we tested a subset of compounds of the invention.

In test [8] the test system is Klebsiella pneumoniae KR1 (clinical isolate with intermediate aminoglycoside resistance). In words: MIC against Klebsiella pneumoniae clinical isolate KR1. The conditions noted are these: Klebsiella pneumonia KR1; in µg/mL.
Text: as §2

Test [9] deals with Klebsiella pneumoniae KR2 (clinical isolate with intermediate aminoglycoside resistance). In words: MIC against Klebsiella pneumoniae clinical isolate KR2. The note with it: Klebsiella pneumonia KR2.
Text: as §2

The subject of test [10] is Acinetobacter baumannii (Aba, ABWT, ATCC #BAA-747). In words: MIC against Acinetobacter baumannii reference strain ABWT. The source says: (§4) For evaluation of efficacy, we assembled panels of representative gram-negative pathogens, including Pseudomonas aeruginosa (Pae, PAWT, ATCC #27853), Klebsiella pneumoniae (Kpn, KPWT, ATCC #700603), Acinetobacter baumannii (Aba, ABWT, ATCC #BAA-747) and Escherichia coli (Eco, ECWT, ATCC #25922). These reference strains are useful indicator organisms to characterize compound activity against bacteria from a pathogenic genus in the absence of multiple resistance mechanisms. Two strains (PAWT and ECWT) are reference strains cited within the Clinical and Laboratory Standards Institute (CLSI) Standards for susceptibility testing by Minimum Inhibitory Concentration (MIC) (SXPS2) and are well suited for quality control. ABWT and ECWT are widely susceptible to aminoglycoside antibiotics, whereas PAWT and KPWT harbor a single aminoglycoside-modifying enzyme (AGME) that targets 4,6-substituted-2-deoxystreptamine AGs. […]

Test [11] concerns Acinetobacter baumannii AB3. As to the kind of experiment: MIC against Acinetobacter baumannii clinical isolate AB3.
Text: as §3

Test [12] relates to Acinetobacter baumannii AB1. As to the kind of experiment: MIC against Acinetobacter baumannii clinical isolate AB1.
Text: as §3

In test [13] the test system is Klebsiella pneumoniae (Kpn, KPWT, ATCC #700603). In words: MIC against Klebsiella pneumoniae reference strain KPWT. The note with it: for MIC KPWT: Klebsiella pneumonia KPWT, Table 5 (unit not given), in µg/mL.
Text: as §4, with “These reference strains are useful indicator organisms to characterize compound activity against bacteria from a pathogenic genus in the absence of multiple resistance mechanisms.” left out

Test [14] deals with Pseudomonas aeruginosa (Pae, PAWT, ATCC #27853). In words: MIC against Pseudomonas aeruginosa reference strain PAWT. The note with it: Pseudomonas aeruginosa wild type PAWT.
Text: as §4

In test [15] the test system is Pseudomonas aeruginosa PR3 (high-level, efflux-mediated, pan-aminoglycoside resistance). As to the kind of experiment: MIC against Pseudomonas aeruginosa clinical isolate PR3. The note with it: for MIC PR3: Pseudomonas aeruginosa resistant strain PR3.
Text: as §1

Test [16] relates to fifty resistant contemporary clinical isolates of Acinetobacter baumannii. In words: MIC90 against panel of resistant clinical isolates of Acinetobacter baumannii. The text has this: As in the case of Pseudomonas aeruginosa and Klebsiella pneumoniae, we considered whether the SAR observed against select Acinetobacter baumannii strains 1, 2 or 3 was indicative of general potency. […] Using this stringent Acinetobacter baumannii panel, we tested a subset of compounds of the invention.

The subject of test [17] is Klebsiella pneumoniae screening panel KPWT, KR1, KR2, KR3. In words: Klebsiella pneumoniae screening panel (KPWT, KR1, KR2, KR3), reference AGs.
Text: as §2

The subject of test [18] is Acinetobacter baumannii indicator strains (ABWT and clinical isolates). As to the kind of experiment: Acinetobacter baumannii indicator strain panel, reference AGs. The conditions noted are these: read-out: activity (MIC) against 3 of the 4 indicator strains.
Text: as §3

The subject of test [19] is Escherichia coli (Eco, ECWT, ATCC #25922). In words: MIC against Escherichia coli reference strain ECWT. The note with it: ATCC25922. The source says:
For evaluation of efficacy, we assembled panels of representative gram-negative pathogens, including Pseudomonas aeruginosa (Pae, PAWT, ATCC #27853), Klebsiella pneumoniae (Kpn, KPWT, ATCC #700603), Acinetobacter baumannii (Aba, ABWT, ATCC #BAA-747) and Escherichia coli (Eco, ECWT, ATCC #25922). These reference strains are useful indicator organisms to characterize compound activity against bacteria from a pathogenic genus in the absence of multiple resistance mechanisms. Two strains (PAWT and ECWT) are reference strains cited within the Clinical and Laboratory Standards Institute (CLSI) Standards for susceptibility testing by Minimum Inhibitory Concentration (MIC) (SXPS2) and are well suited for quality control. ABWT and ECWT are widely susceptible to aminoglycoside antibiotics, whereas PAWT and KPWT harbor a single aminoglycoside-modifying enzyme (AGME) that targets 4,6-substituted-2-deoxystreptamine AGs.

Converted amounts (≈) assume the structure as drawn.

As for `NCCC(O)C(=O)NC1CC(N)C(OC2OC(CN)C(O)CC2N)C(F)C1OC1OC(CNCC(O)CN)C(O)C(N)C1O` (stereo not drawn) [SXP 2524], in test [1], the “MIC90 Pseudomonas aeruginosa” value was 4 µg/mL (≈ 6.22 µM). The “MIC PR2” value in test [2] was determined as 0.5 µg/mL (≈ 0.778 µM). Further, the “MIC KR3” value in test [3] is 0.5-1. For the same compound, the “MIC90 E. coli” value in test [4] is given as 2-4. In test [5], the “MIC PR1” value was 4 µg/mL (≈ 6.22 µM). Also, the “MIC AB2” value in test [6] was determined as 1 µg/mL (≈ 1.56 µM). Besides, the MIC90 Klebsiella pneumonia in test [7] was determined as 1 µg/mL (≈ 1.56 µM). Besides, the “MIC KR1” value in [8] was 0.5-1. For the same compound, in test [9], the “MIC KR2” value came to 0.5. For the same compound, in test [10], the “MIC ABWT” value amounted to 0.5 µg/mL (≈ 0.778 µM). Also, the “MIC AB3” value in [11] was 8 µg/mL (≈ 12.4 µM). Moreover, in [12], the “MIC AB1” value came out at 2 µg/mL (≈ 3.11 µM). The “MIC KPWT” value in test [13] is recorded as 0.5. The “MIC PAWT” value in [14] came to 0.25 µg/mL (≈ 0.389 µM). The “MIC PR3” value in test [15] came out at 8 µg/mL (≈ 12.4 µM). In [16], the “MIC90 Acinetobacter baumannii” value was determined as 2 µg/mL (≈ 3.11 µM).
`NCCC(O)C(=O)NC1CC(N)C(OC2OC(CN)C(O)CC2N)C(F)C1OC1OC(CNCC2CNC2)C(O)C(N)C1O` (stereo not drawn) [SXP 2525]: in test [1], the “MIC90 Pseudomonas aeruginosa” value was determined as 4 µg/mL (≈ 6.26 µM). Also, in test [2], the “MIC PR2” value is 1 µg/mL (≈ 1.57 µM). In test [3], the “MIC KR3” value is on record as 1. Besides, in test [4], the “MIC90 E. coli” value is listed as 2. In test [5], the “MIC PR1” value is 8 µg/mL (≈ 12.5 µM). For the same compound, the “MIC AB2” value in [6] is 1 µg/mL (≈ 1.57 µM). The same compound came in with an MIC90 Klebsiella pneumonia in [7] of 1 µg/mL (≈ 1.57 µM). Moreover, the “MIC KR1” value in test [8] is reported as 1. Also, the “MIC KR2” value in test [9] is 0.5. For the same compound, the “MIC ABWT” value in [10] came out at 0.5 µg/mL (≈ 0.783 µM). Further, in test [11], the “MIC AB3” value is 8 µg/mL (≈ 12.5 µM). For the same compound, the “MIC AB1” value in test [12] lay in the range of 2 to 4 µg/mL. The “MIC KPWT” value in test [13] was found to be 0.5. Besides, the “MIC PAWT” value in test [14] fell in the range of 0.25 to 0.5 µg/mL. In test [15], the “MIC PR3” value came to 8 µg/mL (≈ 12.5 µM). Further, in test [16], the “MIC90 Acinetobacter baumannii” value worked out at 2 µg/mL (≈ 3.13 µM).
On to `NCCC(O)C(=O)NC1CC(N)C(OC2OC(CN)C(O)CC2N)C(F)C1OC1OC(CNC2CNC2)C(O)C(N)C1O` (stereo not drawn) [SXP 2554], for which, in [1], the “MIC90 Pseudomonas aeruginosa” value came to 4 µg/mL (≈ 6.4 µM). Further, the “MIC PR2” value in test [2] is 0.5 µg/mL (≈ 0.8 µM). Besides, the “MIC KR3” value in test [3] was 0.25-0.5. The “MIC90 E. coli” value in [4] is on record as 2. The “MIC PR1” value in [5] amounted to 2 µg/mL (≈ 3.2 µM). Further, the “MIC AB2” value in test [6] was in the range of 0.25 to 0.5 µg/mL. Also, the MIC90 Klebsiella pneumonia in test [7] came out at 0.5 µg/mL (≈ 0.8 µM). In [8], the “MIC KR1” value was found to be 0.25. In addition, the “MIC KR2” value in test [9] turned out to be 0.125. The “MIC ABWT” value in test [10] turned out to be 0.25 µg/mL (≈ 0.4 µM). Also, the “MIC AB3” value in test [11] fell in the range of 2 to 4 µg/mL. Further, in test [12], the “MIC AB1” value is 0.5 µg/mL (≈ 0.8 µM). Further, the “MIC KPWT” value in [13] turned out to be 0.125. Further, in test [14], the “MIC PAWT” value was found to be 0.25 µg/mL (≈ 0.4 µM). For the same compound, in test [15], the “MIC PR3” value is 8 µg/mL (≈ 12.8 µM). The “MIC90 Acinetobacter baumannii” value in test [16] was found to be 2 µg/mL (≈ 3.2 µM).
`NCC[C@H](O)C(=O)N[C@@H]1C[C@H](N)[C@@H](O[C@H]2O[C@H](CN)CC[C@H]2N)[C@H](O)[C@H]1O[C@H]1O[C@H](CO)[C@@H](O)[C@H](N)[C@H]1O` [arbekacin]: the MIC is 8 to 16 µg/mL (≈ 14.5 to 29 µM) in test [2]; 8 µg/mL (≈ 14.5 µM) in test [5]; 0.5 µg/mL (≈ 0.905 µM) in test [10] (ATCCBAA747); at most 8 µg/mL in test [18]; 0.25 to 0.5 µg/mL (≈ 0.452 to 0.905 µM) in [13] (ATCC700603, Klebsiella pneumoniae KPWT, Table 2); 0.5 µg/mL (≈ 0.905 µM) in test [14] (ATCC27853). Moreover, the MIC in test [15] (Pseudomonas aeruginosa, read-out: MIC PR3) stood at 16 µg/mL (≈ 29 µM); in test [19] it was 1 µg/mL (≈ 1.81 µM). In test [17], the “potency against Klebsiella pneumoniae test panel” value was “potency against 3 of 4 strains tested”.

By MIC is commonly meant the lowest concentration found to suppress growth.
